In article PMC3479139, “Diverse Small Molecule Inhibitors of Human Apurinic/Apyrimidinic Endonuclease APE1 Identified from a Screen of a Large Public Collection” (PLoS ONE, 2012):

Experiments:
APE1 [1] = target: T1, APE1 (Homo sapiens, UniProt P27695); assay: Fluorogenic kinetic qHTS APE1 incision assay (primary screen and retest of cherrypicked samples); assay type: biochemical;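 also: purified APE1 cleaving a fluorophore/dark-quencher labelled 17-mer duplex DNA bearing a tetrahydrofuran AP site, fluorescence rise followed kinetically over the first 2 min, inhibition normalized to controls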
T1 construct: made in house
T1 sequence (P27695 whole entry): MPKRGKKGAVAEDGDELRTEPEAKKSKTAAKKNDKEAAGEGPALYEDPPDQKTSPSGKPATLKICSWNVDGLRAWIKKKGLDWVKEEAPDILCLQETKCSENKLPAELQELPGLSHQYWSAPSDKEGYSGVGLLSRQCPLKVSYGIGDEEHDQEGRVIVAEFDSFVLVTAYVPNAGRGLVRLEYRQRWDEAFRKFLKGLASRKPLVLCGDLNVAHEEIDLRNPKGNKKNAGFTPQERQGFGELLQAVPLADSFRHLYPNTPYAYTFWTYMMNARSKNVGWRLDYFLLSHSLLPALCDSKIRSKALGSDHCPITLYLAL

E. coli Endo IV = target: T2, E. coli Endo IV (Escherichia coli, UniProt P0A6C1); assay: E. coli Endo IV profiling counterscreen; assay type: biochemical; conditions: read-out: EndoIV IC50;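 also: selectivity counterscreen of candidate APE1 inhibitors against the bacterial endonuclease Endo IV, run in the same assay format as the primary APE1 high-throughput screen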
T2 construct: made in house
Excerpt: In order to screen out nonselective compounds, such as non-specific DNA binders and inhibitors of related enzymes, we used a miniaturized ThO DNA displacement assay and a counterscreen against the bacterial endonuclease E. coli Endo IV, respectively, following the previously published protocols [21].
To probe the selectivity of the candidate APE1 inhibitors, we tested them against E. coli EndoIV [36], employing the same assay as used in the HTS.

APE1 [2] = target: T1, APE1; assay: Gel-based radiotracer (32P) APE1 incision assay; assay type: biochemical; set-up: concentration or dose not given beside the values; conditions: percent incision shown; entries 1-112;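 also: APE1 incision reactions ran 5 min at 37 °C, with cleaved product and intact substrate resolved electrophoretically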
[3] = target: double-stranded 17-mer DNA fragment; assay: ThO (Thiazole Orange) DNA displacement assay; assay type: binding; conditions: read-out: ThO-DNA binding IC50;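 also: miniaturized displacement of the intercalating dye from unlabeled duplex DNA, used to flag nonspecific DNA binders, chiefly intercalators, groove binders may be missed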
APE1 [4] = target: T1, APE1; assay: Fluorescence polarization (FP) displacement assay of APE1 binding to AP-DNA probe; conditions: read-out: FP IC50;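 also: TAMRA 5′-labeled duplex DNA with THF abasic site (5 nM) and APE1 (20 nM), Mg2+-free buffer, 15 min at room temperature, inhibition seen as lowered polarization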
[5] = initial quantitative high-throughput screen, read-out: APE1 qHTS IC50
[6] = retest of cherrypicked sample, read-out: APE1 Retest IC50

SMILES	IC50 (APE1 [1]; [5]) [µM]	IC50 (APE1 [1]; [6]) [µM]	IC50 (E. coli Endo IV) [µM]	Radiotracer Assay (%Activity) (APE1 [2]) [%]	IC50 [3] [µM]	IC50 (APE1 [4]) [µM]
CC(C)C(C(=O)O)N1C(=O)/C(=C/C=C/c2ccco2)SC1=S (centres unmarked) [MLS000551672]	1.6	2.5	> 57	19	> 57	11.2
Cc1cccc(C)c1NC(=O)CSc1nnc(-c2ccco2)c(-c2ccco2)n1 [MLS000556463]	15.6	3.6	> 57	43	> 57	> 57
NC(=O)Cn1c(=O)n(Cc2ccco2)c(=O)c2c3c(sc21)CCCCC3 [MLS000559128]	31.6	10	> 57	21	> 57	7.1
O=C(OCC1O[C@@H](OC(=O)c2cc(O)c(O)c(O)c2)[C@@H](OC(=O)c2cc(O)c(O)c(O)c2)[C@@H](OC(=O)c2cc(O)c(O)c(O)c2)[C@@H]1OC(=O)c1cc(O)c(O)c(O)c1)c1cc(O)c(O)c(O)c1 (some centres unmarked) [MLS000574902]	0.01	0.006	> 57	8	4	> 57
O=C(N/N=C/c1cccn1-c1cccc(C(=O)O)c1)Nc1ccccc1 [MLS000588622]	5	3.5	> 57	32	> 57	> 57
COc1ccc2c(c1)c(=O)oc1cc(OCC(=O)NC3CCCCC3)ccc12 [MLS000594161]	11.2	5.6	> 57	38	> 57	> 57
N#C/C(=C/c1cccn1-c1cccc(C(=O)O)c1)c1ccc(Cl)cc1 [MLS000621431]	11.2	5	> 57	44	> 57	> 57
Cc1cccc(N2NC(=O)/C(=C/c3ccc(-c4ccc(Cl)c(C(=O)O)c4)o3)C2=O)c1 [MLS000621664]	17.8	12.6	> 57	32	> 57	> 57
O=C(O)c1ccc(-n2cccc2/C=C2/NC(=O)N(c3cccc(Cl)c3)C2=O)cc1 [MLS000621695]	2.8	1.6	> 57	6	15.8	11.2
Cc1cc(/C=C2\C(=O)NC(=O)N(Cc3ccccc3Cl)C2=O)c(C)n1-c1ccc(C(=O)O)cc1 [MLS000627094]	11.2	12.6	> 57	2	> 57	15.8
O=C(CSc1nc(-c2ccc(F)cc2)nc2c1Cc1ccccc1O2)Nc1ccc(C(=O)O)cc1 [MLS000673045]	12.6	4.5	14.1	36	3.2	> 57
CC(=O)NC1=NC(=O)/C(=C/c2cc(C)n(-c3cccc(C(=O)O)c3)c2C)S1 [MLS000673948]	3.5	4.4	> 57	30	> 57	> 57
Cc1cc(C=O)c(C)n1-c1ccc(Cl)c(C(=O)O)c1 [MLS000676588]	5.6	8.9	> 57	31	> 57	> 57
O=C1NN(c2ccccc2)C(=O)/C1=C/c1ccc(-c2ccc(Cl)c(C(=O)O)c2)o1 [MLS000682903]	12.6	15.6	> 57	37	> 57	15.8
O=C(CCc1n[nH]c(=O)[nH]c1=O)N/N=C/c1ccco1 [MLS000685551]	19.9	12.6	> 57	33	> 57	> 57
COc1cc(/C=N/Nc2ccc(C(=O)O)cc2)ccc1O [MLS000685676]	14.1	14.1	> 57	50	> 57	> 57
O=c1nc(N/N=C/c2ccco2)cn[nH]1 [MLS000685729]		5	> 57	28	> 57	> 57
Cc1ccc(NC(=O)CN2C(=O)N/C(=C\c3cccn3-c3cccc(C(=O)O)c3)C2=O)cc1 [MLS000686355]	3.5	1.4	> 57	15	> 57	14.1
O=C(O)C[C@@H]1C(=O)O[C@@H]2C(COC(=O)c3cc(O)c(O)c(O)c3)O[C@@H](OC(=O)c3cc(O)c(O)c(O)c3)[C@@H](OC(=O)c3cc(O)c(O)c4c3[C@H]1[C@H](O)C(=O)O4)[C@H]2OC(=O)c1cc(O)c(O)c(O)c1 (some centres unmarked) [MLS000697665]	0.01	0.01	> 57	29	0.4	14.1
O=C(/C=C/c1ccc(O)c(O)c1)O[C@H](Cc1ccc(O)c(O)c1)C(=O)O [MLS000697677]	0.1	0.6	> 57	38	> 57	> 57
O=C(c1cc(C(=O)c2ccco2)cc(C(=O)c2ccco2)c1)c1ccco1 [MLS000699310]	31.6	5	> 57	6	> 57	> 57
Cc1cc(C)c2nc(-c3ccco3)cc(C(=O)O)c2c1 [MLS000703171]	7.1	12.6	> 57	23	> 57	> 57
Cc1ccccc1N=C1NC(=O)/C(=C/c2cccn2-c2cccc(C(=O)O)c2)S1 [MLS000704580]	17.8	11.2	> 57	7	> 57	> 57
Cn1cnnc1SCC(=O)Nc1nc(-c2ccccc2)cs1 [MLS000711532]	28.2	10	> 57	32	> 57	> 57
O=C(O)c1ccc(N2C(=O)c3cccc4c(C(=O)O)ccc(c34)C2=O)cc1 [MLS000713642]	12.6	7.9	> 57	28	> 57	15.8
Nc1ccc2c(c1Cl)C(=O)c1ccc(N)c(Cl)c1C2=O [MLS000737360]	8.9	6.3	> 57	17	6.3	7.9
Nc1ccc(Nc2ccccc2)c(S(=O)(=O)O)c1 [MLS000737782]	14.1	15.8	> 57	9	> 57	> 57
O=C1CCCC(O)=C1N=Nc1ccc(C(=O)O)cc1 [MLS000759943]	8.9	10	> 57	47	> 57	> 57
